In turn, `*C(=O)c1ccc2c(c1)C(=O)N(C1CCC(CC3CCC(N4C(=O)c5ccc(*)cc5C4=O)CC3)CC1)C2=O` (repeat unit) returned a glass transition temperature of 254.00 °C.
For the molecule `*C(=S)Nc1ccc(Oc2ccc(NC(=S)N3C(=O)c4ccc(C(=O)c5ccc6c(c5)C(=O)N(*)C6=O)cc4C3=O)cc2)cc1` (repeat unit), the glass transition temperature was 262.00 °C.
The same measure for `*CC1CC2CC1C1CCC(CN3C(=O)c4ccc(C(=O)c5ccc6c(c5)C(=O)N(*)C6=O)cc4C3=O)C21` (repeat unit): 217.00 °C.
`*CC1CCCC(CN2C(=O)c3ccc(Oc4ccc5c(c4)C(=O)N(*)C5=O)cc3C2=O)C1` (repeat unit): the glass transition temperature was found to be 199.00 °C.
Under `*CCCCCCCCN1C(=O)c2ccc(Oc3ccc4c(c3)C(=O)N(*)C4=O)cc2C1=O` (repeat unit) stands 145.00 °C; under `*CCCCCCCN1C(=O)c2ccc(Oc3ccc4c(c3)C(=O)N(*)C4=O)cc2C1=O` (repeat unit), 110.00 °C.
Take `*OS(=O)(=O)c1ccc(*)cc1` (repeat unit): the glass transition temperature is 119.00 °C.
`*Oc1cc(C(=O)c2ccccc2)c(Oc2ccc(*)cc2)cc1C(=O)c1ccccc1` (repeat unit): the glass transition temperature worked out at 137.00 °C.
Under `*Oc1ccc(OC(=O)c2cccc(Sc3ccc(OC(=O)c4ccc(C(=O)Oc5ccc(Sc6cccc(C(*)=O)c6)cc5)cc4)cc3)c2)cc1-c1ccccc1` (repeat unit) stands 128.00 °C; under `*Oc1ccc(Oc2ccc(/C=N/CCCC/N=C/c3ccc(*)cc3)cc2)cc1` (repeat unit), 105.00 °C.
Consider `*Oc1ccc(Oc2ccc(/C=N/CCCCCCCCCC/N=C/c3ccc(*)cc3)cc2)cc1` (repeat unit), for which the glass transition temperature turned out to be 108.00 °C.
The same measure for `*Oc1ccc(Oc2ccc(/C=N/CCCCCCCCCCCC/N=C/c3ccc(*)cc3)cc2)cc1` (repeat unit): 118.00 °C; for `*Oc1ccc(Oc2ccc(/C=N/c3ccc(/N=C/c4ccc(*)cc4)cc3)cc2)cc1` (repeat unit): 117.00 °C.
The same measure for `*Oc1ccc(Oc2ccc(OC(*)=O)cc2)cc1` (repeat unit): 118.00 °C.
The molecule `*Oc1ccc(Oc2ccc(OC(=O)c3ccc(C(c4ccc(C(*)=O)cc4)(C(F)(F)F)C(F)(F)F)cc3)cc2)cc1` (repeat unit) came in with a glass transition temperature of 215.00 °C.
With `*Oc1ccc(Oc2ccc(OC(=O)c3cccc(Oc4ccc(Oc5cccc(C(*)=O)c5)cc4)c3)cc2)cc1` (repeat unit), the glass transition temperature was 104.00 °C.
The same measure for `*Oc1ccc(Oc2ccc(Oc3ccc(Oc4ccc(OC(=O)c5cccc(C(*)=O)c5)cc4)cc3)cc2)cc1` (repeat unit): 134.00 °C; for `*Oc1ccc(Oc2cccc(*)n2)cc1` (repeat unit): 100.00 °C; for `*Oc1ccc(S(=O)(=O)c2ccc(OC(=O)c3cccc(C(*)=O)c3)cc2)cc1` (repeat unit): 249.00 °C.
In the case of `*Oc1ccc(Sc2ccc(Oc3ccc4c(=O)n5c6cc(Oc7ccc8c(c7)nc7c9ccc(*)c%10cccc(c(=O)n87)c%109)ccc6nc5c5cccc3c45)cc2)cc1` (repeat unit), the glass transition temperature is 346.00 °C.
`*c1cc(Br)c(Oc2c(Br)cc(N3C(=O)c4ccc(Oc5ccc6c(c5)C(=O)N(*)C6=O)cc4C3=O)cc2Br)c(Br)c1` (repeat unit) came in with a glass transition temperature of 283.00 °C.
On to `*c1cc(C(c2ccc(O)c(N3C(=O)c4ccc(Oc5ccc6c(c5)C(=O)N(*)C6=O)cc4C3=O)c2)(C(F)(F)F)C(F)(F)F)ccc1O` (repeat unit), for which the glass transition temperature was found to be 266.00 °C.
`*c1ccc(-c2ccc(N3C(=O)c4ccc(Oc5ccc(Oc6ccc7c(c6)C(=O)N(*)C7=O)cc5)cc4C3=O)cc2)cc1` (repeat unit) came in with a glass transition temperature of 266.00 °C.
`*c1ccc(-c2ccc(N3C(=O)c4ccc(Oc5ccc(Sc6ccc(Oc7ccc8c(c7)C(=O)N(*)C8=O)cc6)cc5)cc4C3=O)cc2)cc1` (repeat unit) gave a glass transition temperature of 257.00 °C.
`*c1ccc(C(c2ccc(N3C(=O)c4ccc(Oc5ccc6c(c5)C(=O)N(*)C6=O)cc4C3=O)cc2)(C(F)(F)F)C(F)(F)F)cc1` (repeat unit) had a glass transition temperature of 305.00 °C.
`*c1ccc(N2C(=O)c3ccc(Oc4ccc(Sc5ccc(Oc6ccc7c(c6)C(=O)N(*)C7=O)cc5)cc4)cc3C2=O)cc1` (repeat unit): the glass transition temperature came to 238.00 °C.
For `*c1ccc(Oc2ccc(N3C(=O)c4ccc(Oc5ccc(Oc6ccc(Oc7ccc8c(c7)C(=O)N(*)C8=O)cc6)cc5)cc4C3=O)cc2)cc1` (repeat unit), the glass transition temperature worked out at 215.00 °C.
Molecule `*c1ccc(Oc2ccc(N3C(=O)c4cccc(Oc5ccc(S(=O)(=O)c6ccc(Oc7cccc8c7C(=O)N(*)C8=O)cc6)cc5)c4C3=O)cc2)cc1` (repeat unit) had a glass transition temperature of 267.00 °C.
The molecule `*c1ccc(Oc2ccc(Oc3ccc(N4C(=O)c5ccc(Oc6ccc(Oc7ccc(Oc8ccc9c(c8)C(=O)N(*)C9=O)cc7)cc6)cc5C4=O)cc3)cc2)cc1` (repeat unit) came in with a glass transition temperature of 203.00 °C.
As for `*c1ccc(Oc2ccc(Oc3ccc(Oc4ccc(N5C(=O)c6ccc(Oc7ccc(Oc8ccc9c(c8)C(=O)N(*)C9=O)cc7)cc6C5=O)cc4)cc3)cc2)cc1` (repeat unit), the glass transition temperature was determined as 210.00 °C.
Turning to `*c1ccc(Oc2ccc(S(=O)(=O)c3ccc(Oc4ccc(N5C(=O)c6ccc(Oc7ccc(Oc8ccc9c(c8)C(=O)N(*)C9=O)cc7)cc6C5=O)cc4)cc3)cc2)cc1` (repeat unit), the glass transition temperature is 201.00 °C.
On to `*c1ccc(Oc2ccc(Sc3ccc(Oc4ccc(N5C(=O)c6ccc(Oc7ccc(Oc8ccc(Oc9ccc%10c(c9)C(=O)N(*)C%10=O)cc8)cc7)cc6C5=O)cc4)cc3)cc2)cc1` (repeat unit), for which the glass transition temperature turned out to be 194.00 °C.
In the case of `*c1ccc(Oc2cccc(Oc3ccc(N4C(=O)c5cccc(Oc6ccc(S(=O)(=O)c7ccc(Oc8cccc9c8C(=O)N(*)C9=O)cc7)cc6)c5C4=O)cc3)c2)cc1` (repeat unit), the glass transition temperature came to 230.00 °C.
The molecule `*c1cccc(N2C(=O)c3ccc(Oc4ccc(Oc5ccc(Oc6ccc7c(c6)C(=O)N(*)C7=O)cc5)cc4)cc3C2=O)c1` (repeat unit) displayed a glass transition temperature of 227.00 °C.
The molecule `*c1cccc(N2C(=O)c3ccc(Oc4ccc(S(=O)(=O)c5ccc(Oc6ccc7c(c6)C(=O)N(*)C7=O)cc5)cc4)cc3C2=O)c1` (repeat unit) gave a glass transition temperature of 265.00 °C.
For `*c1cccc(N2C(=O)c3ccc(Oc4ccc(Sc5ccc(Oc6ccc7c(c6)C(=O)N(*)C7=O)cc5)cc4)cc3C2=O)c1` (repeat unit), the glass transition temperature was 209.00 °C.
Regarding `*c1cccc(N2C(=O)c3cccc(Oc4ccc(Oc5ccc(Oc6cccc7c6C(=O)N(*)C7=O)cc5)cc4)c3C2=O)c1` (repeat unit), the glass transition temperature was 238.00 °C.
`*c1cccc(N2C(=O)c3cccc(Oc4ccc(S(=O)(=O)c5ccc(Oc6cccc7c6C(=O)N(*)C7=O)cc5)cc4)c3C2=O)c1` (repeat unit) displayed a glass transition temperature of 266.00 °C.
Consider `*c1cccc(S(=O)(=O)c2cccc(N3C(=O)c4ccc(Oc5ccc(S(=O)(=O)c6ccc(Oc7ccc8c(c7)C(=O)N(*)C8=O)cc6)cc5)cc4C3=O)c2)c1` (repeat unit), for which the glass transition temperature was found to be 205.00 °C.
